Data from patent US9701689B2, “Substituted pyridines and pyridazines as CCR10 receptor inhibitors” (KYOWA HAKKO KIRIN CO., LTD., priority 2012, dated 2017).

Molecular target: T1, human CCR10 (Homo sapiens, UniProt P46092)
T1 construct: expressed in transfected cells; host or cells: KJMGER8 cells (Namalwa cell-derived line), beta-estradiol-induced; hCCR10G16 cells
T1 sequence (P46092 1-362): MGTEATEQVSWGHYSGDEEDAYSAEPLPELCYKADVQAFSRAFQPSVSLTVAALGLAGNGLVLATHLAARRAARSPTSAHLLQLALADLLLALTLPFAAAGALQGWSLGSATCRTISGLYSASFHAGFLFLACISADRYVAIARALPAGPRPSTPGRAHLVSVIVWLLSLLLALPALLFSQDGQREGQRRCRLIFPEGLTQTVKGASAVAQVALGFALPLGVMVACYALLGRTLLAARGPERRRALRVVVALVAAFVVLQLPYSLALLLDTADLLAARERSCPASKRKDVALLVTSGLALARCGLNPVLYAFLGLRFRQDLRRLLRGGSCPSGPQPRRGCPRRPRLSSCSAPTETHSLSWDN
Assay: CCR10 antagonistic effect: calcium assay of human CCR10 (CTACK-induced increase of intracellular calcium in hCCR10G16 cells)
Assay type: cell-based
Conditions: at a concentration of not more than 1000 nmol/L; human CCR10-expressing hCCR10G16 cells, 300 nmol/L CTACK added; read-out: inhibition of increase in the calcium ion concentration
Description: [Experimental Example 1] CCR10 Antagonistic Effect
(1) Preparation of Human CCR10-Inducible Expression Plasmid
A CCR10-inducible expression plasmid was prepared according to a known method [Analytical Biochemistry, 2006, vol. 400, page 163]. A DNA encoding human CCR10 was obtained by PCR. Using human chromosome DNA (100 ng; manufactured by Clontech) as a template, synthetic DNA having the sequences depicted in SEQ ID NOs: 1 and 2 as a human CCR10 cDNA specific primer, and Pyrobest DNA Polymerase (manufactured by TAKARA SHUZO CO. LTD.) as an enzyme, a DNA encoding human CCR10 was obtained by PCR. As a buffer for PCR, the buffer attached to the enzyme to be used, which was diluted 10-fold with deionized water, was used. Using Thermal Cycler DNA Engine (manufactured by MJ Research), PCR was performed by 35 cycles of reactions composed of an incubation at 94° C. for 30 sec, at an anneal temperature of 58° C. for 30 sec, and at 72° C. for 1 min after treating at 90° C. for 2 min.
The amplified PCR fragment was cleaved with HindIII and NotI, then a human CCR10 DNA fragment was recovered by the agarose gel electrophoresis method. The fragment was incorporated between the corresponding restriction enzyme sites (HindIII-NotI) of an inducible expression vector to construct a human CCR10-inducible expression plasmid.
Using a primer specific to the sequence of plasmid (synthetic DNA having the sequences shown in SEQ ID NOs: 3 and 4), the sequence of human CCR10 DNA region was determined. For the determination of the base sequence, DNA Sequencer 377 (manufactured by Perkin Elmer. Co.) and a reaction kit (ABI Prism (registered trade mark) BigDye (registered trade mark) Terminator Cycle Sequencing Ready Reaction kit: manufactured by Applied Biosystems) were used. The sequence of human CCR10 DNA was identical with the sequence (NM 016602) registered in GenBank.
(2) Preparation of Human CCR10 Expressing Cell for Calcium Assay
Cells for detecting signals from human CCR10 in calcium assay were prepared. According to a known method [Analytical.Biochemistry (Analy Biochem), 2006, vol. 400, page 163], human CCR10-inducible expressing cells whose host cell is KJMGER8 cell (Namalwa cell-derived cell line) were prepared. Human CCR10-inducible expression plasmid produced above and Gα16 expression plasmid were co-transfected into the KJMGER8 cells by the electroporation method [Cytotechnology, 1990, vol. 3, page 133], whereby the signals from human CCR10 could be detected by calcium assay (hereinafter to be referred to as hCCR10G16 cell). A Ga16 expression plasmid was produced by incorporating human Ga16 DNA into expression vector pAMoh (WO 03/087366). Expression of human CCR10 was induced by cultivating hCCR10G16 cells in the presence of 10 nmol/L β-estradiol (manufactured by Sigma Ltd.) for 24 hr.
(3) Calcium Assay of Human CCR10
Cells expressing human CCR10 induced by the above-mentioned method were suspended in RPMI1640 medium (manufactured by Invitrogen), and adjusted to a cell density of 2×10^6 cells/mL. The cells were blended with an equivalent volume of a loading buffer prepared according to the attached protocol of Fluo-3 calcium assay kit (manufactured by Molecular Devices Corporation), and incubated at 37° C. for several dozen minutes. This mixture was dispensed to a 384 well clear-bottom plate (manufactured by Corning Incorporated) at 40 μL/well. To this plate was added a solution of the test compound in dimethyl sulfoxide (DMSO), which was diluted 37-fold with RPMI1640 medium, at 5 μL/well, and the mixture was incubated at 37° C. for 30 min. 300 nmol/L human recombinant CTACK (manufactured by R&D Systems, Inc.) diluted with RPMI1640 medium containing 1 w/v % bovine serum albumin (manufactured by Sigma Ltd.) was added at 5 μL/well and, variation of intracellular calcium ion concentration for about 5 min after the addition was measured by a screening apparatus (FDSS; manufactured by Hamamatsu Photonics K.K.). […]

| inhibition at up to 1 µM | Compound |
| --- | --- |
| ≥ 50% | NS(=O)(=O)c1ncc(C(=O)N2CCC(c3ccc(F)cc3)CC2)c(Nc2ccc(F)cc2F)c1Cl [Compound 27, 3-chloro-4-(2,4-difluorophenylamino)-5-[4-(4-fluorophenyl)piperidine-1-carbonyl]pyridine-2-sulfonamide] |
| ≥ 50% | NS(=O)(=O)c1ncc(C(=O)N2CCC(c3ccc(F)cc3)CC2)c(Nc2ccc(Cl)cc2F)c1Cl [Compound 28, 3-chloro-4-(4-chloro-2-fluorophenylamino)-5-[4-(4-fluorophenyl)piperidine-1-carbonyl]pyridine-2-sulfonamide] |
| ≥ 50% | COc1ccc(Nc2c(C(=O)N3CCC(c4ccc(F)cc4)CC3)cnc(S(N)(=O)=O)c2Cl)cc1 [Compound 29, 3-chloro-5-[4-(4-fluorophenyl)piperidine-1-carbonyl]-4-(4-methoxyphenylamino)pyridine-2-sulfonamide] |
| ≥ 50% | COc1ccc(Nc2c(C(=O)N3CCC(c4ccc(F)cc4)CC3)cnc(S(N)(=O)=O)c2Cl)c(F)c1 [Compound 30, 3-chloro-4-(2-fluoro-4-methoxyphenylamino)-5-[4-(4-fluorophenyl)piperidine-1-carbonyl]pyridine-2-sulfonamide] |
| ≥ 50% | Cc1cc(Nc2c(C(=O)N3CCC(c4ccc(F)cc4)CC3)cnc(S(N)(=O)=O)c2Cl)ccc1F [Compound 31, 3-chloro-4-(4-fluoro-3-methylphenylamino)-5-[4-(4-fluorophenyl)piperidine-1-carbonyl]pyridine-2-sulfonamide] |
| ≥ 50% | COc1ccc(Nc2c(C(=O)N3CCC(c4ccc(F)cc4)CC3)cnc(S(N)(=O)=O)c2Cl)cc1F [Compound 32, 3-chloro-4-(3-fluoro-4-methoxyphenylamino)-5-[4-(4-fluorophenyl)piperidine-1-carbonyl]pyridine-2-sulfonamide] |
| ≥ 50% | Cc1ccccc1Nc1c(C(=O)N2CCC(c3ccc(F)cc3)CC2)cnc(S(N)(=O)=O)c1Cl [Compound 33, 3-chloro-5-[4-(4-fluorophenyl)piperidine-1-carbonyl]-4-(o-tolylamino)pyridine-2-sulfonamide] |
| ≥ 50% | NS(=O)(=O)c1ncc(C(=O)N2CCC(c3ccc(F)cc3)CC2)c(Nc2cc(F)c(F)cc2F)c1Cl [Compound 34, 3-chloro-5-[4-(4-fluorophenyl)piperidine-1-carbonyl]-4-(2,4,5-trifluorophenylamino)pyridine-2-sulfonamide] |
| ≥ 50% | CNC(=O)C1COCCN1S(=O)(=O)c1ncc(C(=O)N2CCC(c3ccc(F)cc3)CC2)c(Nc2ccc(F)cc2C)c1Cl (stereo not drawn) [Compound 35, 4-{3-chloro-4-(4-fluoro-2-methylphenylamino)-5-[4-(4-fluorophenyl)piperidine-1-carbonyl]pyridin-2-ylsulfonyl}-N-methylmorpholine-3-carboxamide] |
| ≥ 50% | COc1ccc(NS(=O)(=O)c2ncc(C(=O)N3CCC(c4ccc(F)cc4)CC3)c(Nc3ccc(F)cc3C)c2Cl)cc1 [Compound 38, 3-chloro-4-(4-fluoro-2-methylphenylamino)-5-[4-(4-fluorophenyl)piperidine-1-carbonyl]-N-(4-methoxyphenyl)pyridine-2-sulfonamide] |
| ≥ 50% | Cc1cc(F)ccc1Nc1c(C(=O)N2CCC(c3ccc(F)cc3)CC2)cnc(S(=O)(=O)Nc2ccn(C)n2)c1Cl [Compound 39, 3-chloro-4-(4-fluoro-2-methylphenylamino)-5-[4-(4-fluorophenyl)piperidine-1-carbonyl]-N-(1-methyl-1H-pyrazol-3-yl)pyridine-2-sulfonamide] |
| ≥ 50% | Cc1cc(NS(=O)(=O)c2ncc(C(=O)N3CCC(c4ccc(F)cc4)CC3)c(Nc3ccc(F)cc3C)c2Cl)no1 [Compound 40, 3-chloro-4-(4-fluoro-2-methylphenylamino)-5-[4-(4-fluorophenyl)piperidine-1-carbonyl]-N-(5-methylisoxazol-3-yl)pyridine-2-sulfonamide] |
